From US20120309087A1, “CANCER THERAPY” (University Court of The University of Dundee, priority 2006, published 2012)
Where “and” joins values, the source holds several entries; their conditions need not be identical. Equal entries are not always repeated.

Legend:
[1] = system: AKR1C protein in LS174 cells; test: AKR1C protein in LS174 cells; format: cell-based, human; conditions: data not shown
[2] = system: AKR1C and NQO1 protein in MCF7 cells; test: AKR1C and NQO1 protein in MCF7 cells (Western blots); format: cell-based, human; conditions: 24 hrs
Protocol: Method: AREc32 cells were seeded out in 96 well plates and treated with DMSO (control), tBHQ (50 μM), tBHQ+BTB09463 (5 μM) or tBHQ+Retinoic acid (1 μM). After 24 hours incubation, cells were washed and lysed before measuring luciferase activity. BTB09463 is 1-{4-[(3,4-dichlorobenzyl)oxy]phenyl}ethan-1-one. […] Method: AREc32 cells were seeded out in 96 well plates and dosed with BTB09463 (2.5, 5 or 10 μM) for 0, 24 or 48 hrs before treatment with tBHQ (50 μM). 24 hours after the addition of tBHQ, cells were washed and lysed before measuring luciferase activity. […] Method: ARE c32 cells were seeded out in 96 well plates and treated with DMSO (control), tBHQ (50 μM), tBHQ+retinoid (0.25, 0.5 and 1 μM). After 24 hours incubation, cells were washed and lysed before measuring luciferase activity. […] See FIG. 16 Method: A. Caco-2 cells were treated with the known ARE-gene inducer sulforaphane (5 μM), either alone or concomitantly with BTB09463 (5 μM) or Retinoic acid (1 μM). After 24 hrs, cell lysates were prepared and Western blotting performed to measure the levels of AKR1C protein. B. MCF7 cells were treated with sulforaphane (5 μM), either alone or concomitantly with BTB09463 (5 μM). After 24 hrs, cell lysates were prepared and Western blots performed to detect the levels of AKR1C and NQO1; GAPDH was used as a loading control in MCF7 cells. […] Method: Caco-2 cells were treated with DMSO (control), BTB09463 (5 μM), sulforaphane (5 μM) or a combination of sulforaphane plus BTB09463. After 24 hrs treatment, cells were harvested and RNA isolated. cDNA for each sample was generated by reverse transcription and subsequently used in real time PCR analysis of gene transcription (TaqMan analysis) for the ARE-driven genes AKR1C1 and NQO1. Data was normalised to the internal control 18S RNA and the relative levels of AKR1C1 and NQO1 calculated using the comparative CT method. […] Method: MCF7 cells were treated with the known ARE-gene inducer sulforaphane (5 μM), either alone or with various retinoids (0.5 μM). After 24 hrs, cell lysates were prepared and Western blots were performed to detect the levels of AKR1C protein present. […] See FIG. 19 Method: ARE reporter cell line AREc23 was seeded into 96 well plates and treated with a previously determined non-toxic concentration of cytotoxic drug. After 24 hours incubation, cells were washed and lysed before measuring luciferase activity. […] See FIG. 20a Method: ARE reporter cell line AREc23 was seeded into 96 well plates and treated with DMSO (control), Carmustine (100 μM), Carmustine+BTB09463 (5 μM) or Carmustine+Retinoic acid (5 μM) After 24 hours incubation, cells were washed and lysed before measuring luciferase activity. […] After 24 hours incubation, cells were washed and lysed before measuring luciferase activity. B. Modified repeat of experiment A, with cells being pretreated with L-buthionine-(SR)-sulfoximine (BSO), an inhibitor of enzymes in the glutathione synthesis pathway. After 24 hours incubation, cells were washed and lysed before measuring luciferase activity. […] Method: Caco-2 cells were treated for 24 hrs with DMSO (control), Carmustine (100 μM), Carmustine+BTB09463 (5 μM). After 24 hrs, cell lysates were prepared and Western blots to detect the levels of AKR1C. […] Method: MCF7 cells were treated for 24 hrs with DMSO (control; Lane 1), Sulforaphane (5 μM) (Lane 2), Carmustine (100 μM) (Lane 3), Carmustine+BTB09463 (5 μM) (Lane 5). (Lane 4 represents experimental conditions irrelevant to the application). After 24 hrs, cell lysates were prepared and Western blots to detect the levels of Nrf2, NQO1 and AKR1C proteins.

[3] = system: ARE-driven luciferase activity in AREc32 cells; test: Antagonism of induced ARE-driven luciferase activity in AREc32 cells; format: cell-based, human
[4] = system: AKR1C protein in Caco-2 cells; test: AKR1C protein in Caco-2 cells (Western blotting); format: cell-based, human; conditions: 24 hrs
Protocol: (§1) Method: AREc32 cells were seeded out in 96 well plates and treated with DMSO (control), tBHQ (50 μM), tBHQ+BTB09463 (5 μM) or tBHQ+Retinoic acid (1 μM). After 24 hours incubation, cells were washed and lysed before measuring luciferase activity. BTB09463 is 1-{4-[(3,4-dichlorobenzyl)oxy]phenyl}ethan-1-one. […] Method: AREc32 cells were seeded out in 96 well plates and dosed with BTB09463 (2.5, 5 or 10 μM) for 0, 24 or 48 hrs before treatment with tBHQ (50 μM). 24 hours after the addition of tBHQ, cells were washed and lysed before measuring luciferase activity. […] Method: ARE c32 cells were seeded out in 96 well plates and treated with DMSO (control), tBHQ (50 μM), tBHQ+retinoid (0.25, 0.5 and 1 μM). After 24 hours incubation, cells were washed and lysed before measuring luciferase activity. […] See FIG. 16 Method: A. Caco-2 cells were treated with the known ARE-gene inducer sulforaphane (5 μM), either alone or concomitantly with BTB09463 (5 μM) or Retinoic acid (1 μM). After 24 hrs, cell lysates were prepared and Western blotting performed to measure the levels of AKR1C protein. B. MCF7 cells were treated with sulforaphane (5 μM), either alone or concomitantly with BTB09463 (5 μM). After 24 hrs, cell lysates were prepared and Western blots performed to detect the levels of AKR1C and NQO1; GAPDH was used as a loading control in MCF7 cells. […] Method: Caco-2 cells were treated with DMSO (control), BTB09463 (5 μM), sulforaphane (5 μM) or a combination of sulforaphane plus BTB09463. After 24 hrs treatment, cells were harvested and RNA isolated. cDNA for each sample was generated by reverse transcription and subsequently used in real time PCR analysis of gene transcription (TaqMan analysis) for the ARE-driven genes AKR1C1 and NQO1. Data was normalised to the internal control 18S RNA and the relative levels of AKR1C1 and NQO1 calculated using the comparative CT method. […] Method: MCF7 cells were treated with the known ARE-gene inducer sulforaphane (5 μM), either alone or with various retinoids (0.5 μM). After 24 hrs, cell lysates were prepared and Western blots were performed to detect the levels of AKR1C protein present. […] See FIG. 19 Method: ARE reporter cell line AREc23 was seeded into 96 well plates and treated with a previously determined non-toxic concentration of cytotoxic drug. After 24 hours incubation, cells were washed and lysed before measuring luciferase activity. […] See FIG. 20a Method: ARE reporter cell line AREc23 was seeded into 96 well plates and treated with DMSO (control), Carmustine (100 μM), Carmustine+BTB09463 (5 μM) or Carmustine+Retinoic acid (5 μM) After 24 hours incubation, cells were washed and lysed before measuring luciferase activity. […] After 24 hours incubation, cells were washed and lysed before measuring luciferase activity. […]

[5] = system: AKR1C1, NQO1, GCLC, GCLM mRNA in A549 cells; test: Constitutive mRNA of ARE-driven genes in A549 cells (Taqman); format: cell-based, human; conditions: 24 hrs
MCF7 cells = test: cells; format: cell-based; conditions: Homo sapiens, single agent
A549 cells = test: Cytotoxicity in A549 cells (ATP levels, 72 h); format: cell-based, human; conditions: Homo sapiens, single agent
[6] = system: AKR1C1 and NQO1 mRNA in Caco-2 cells; test: AKR1C1 and NQO1 mRNA in Caco-2 cells (TaqMan); format: cell-based, human; conditions: sulforaphane 5 μM + BTB09463 5 μM, 24 hrs
Protocol: as §1

[7] = system: ARE reporter system in HepG2 cells; test: Transient pGL-GSTA2.41bp-ARE luciferase reporter in HepG2 cells; conditions: 50 μM tBHQ
Protocol: (§2) The Dual-luciferase Reporter Assay System (Promega) was used to examine reporter gene activity in transiently transfected cells. Briefly, cells were seeded at a density of 2×10^5 cells/well in 24-well plates and grown in the appropriate medium. After overnight incubation, the cells were transiently transfected with various ARE-luciferase reporter plasmids. The plasmid pRL-TK, encoding Renilla luciferase was used to control for transfection efficiency. Transfections were performed using Lipofectamine 2000 Reagent (Lifer Technologies Inc. Ltd., Coventry, UK) according to the manufacture's instructions. Following transfection, the culture medium was replaced 24 h later with fresh growth medium containing 50 μM tBHQ (in a solution giving a final concentration of 0.1% v/v dimethyl sulfoxide (DMSO)), which was prepared immediately before each experiment. For control experiments, vehicle alone (0.1% v/v DMSO) was added to the growth medium. Cells were left for 24 h to respond to xenobiotics before being harvested and the firefly and Renilla luciferase activities in cell lysates were measured using a luminometer (Turner Designs Model TD-20/20, Promega) following addition of Luciferase Assay Reagent II (Promega). […] The relative luciferase activity was calculated by normalizing firefly luciferase activity to that of Renilla luciferase. […]

[8] = system: ARE reporter system in CHO cells; test: Transient pGL-GSTA2.41bp-ARE luciferase reporter in CHO cells; conditions: 50 μM tBHQ
Protocol: as §2

[9] = system: ARE reporter system in MCF7 cells; test: Transient pGL-GSTA2.41bp-ARE luciferase reporter in MCF7 cells
Protocol: The Dual-luciferase Reporter Assay System (Promega) was used to examine reporter gene activity in transiently transfected cells. Briefly, cells were seeded at a density of 2×10^5 cells/well in 24-well plates and grown in the appropriate medium. After overnight incubation, the cells were transiently transfected with various ARE-luciferase reporter plasmids. The plasmid pRL-TK, encoding Renilla luciferase was used to control for transfection efficiency. Transfections were performed using Lipofectamine 2000 Reagent (Lifer Technologies Inc. Ltd., Coventry, UK) according to the manufacture's instructions. Following transfection, the culture medium was replaced 24 h later with fresh growth medium containing 50 μM tBHQ (in a solution giving a final concentration of 0.1% v/v dimethyl sulfoxide (DMSO)), which was prepared immediately before each experiment. For control experiments, vehicle alone (0.1% v/v DMSO) was added to the growth medium. Cells were left for 24 h to respond to xenobiotics before being harvested and the firefly and Renilla luciferase activities in cell lysates were measured using a luminometer (Turner Designs Model TD-20/20, Promega) following addition of Luciferase Assay Reagent II (Promega). After quenching the reaction, the Renilla luciferase reaction was initiated by adding Stop & Glo Reagent (Promega). The relative luciferase activity was calculated by normalizing firefly luciferase activity to that of Renilla luciferase.
In order to choose an appropriate cell system for the generation of a stable reporter cell line, pGL-GSTA2.41 bp-ARE was transfected into HepG2, MCF7, CHO, Hepa1 cells.

[10] = system: AKR1C mRNA in AREc32 cells; test: AKR1C mRNA in AREc32 cells (TaqMan); conditions: 10 μM tBHQ, 24 h
[11] = system: ARE-driven luciferase activity in AREc32 cells; test: Induction of ARE-driven luciferase activity in stable AREc32 reporter cells; format: cell-based, human
[12] = system: ARE reporter system in Hepa1 cells; test: Transient pGL-GSTA2.41bp-ARE luciferase reporter in Hepa1 cells; conditions: 50 μM tBHQ
Protocol: as §2

[13] = system: ARE-green fluorescent protein (GFP) reporter HepG2 cell line; conditions: 90 μM tBHQ; HepG2/GFP-B; cited from earlier work
[14] = Carmustine 100 μM + BTB09463 5 μM
[15] = HepG2 cells treated with DMSO set at 1

Compound: CC(=O)c1ccc(OCc2ccc(Cl)c(Cl)c2)cc1 [BTB09463, 1-{4-[(3,4-dichlorobenzyl)oxy]phenyl}ethan-1-one]
- carmustine induction of AKR1C protein [1]: reproduced in LS174 cells
- carmustine over expression of AKR1C and NQO1 protein [2, 14]: attenuated
- sulforaphane-driven induction of NQO1 and AKR1C protein ([2]; sulforaphane 5 μM + BTB09463 5 μM): potently inhibited
- suppression of tBHQ induction of luciferase ([3]; 50 μM tBHQ + 5 μM BTB09463, 24 h): approximately 65%
- suppression of tBHQ-mediated induction of luciferase expression, by dosing regimen ([3]; BTB09463 2.5, 5 or 10 μM for 0, 24 or 48 hrs before 50 μM tBHQ): identical under each dosing regimen
- carmustine-mediated induction of luciferase activity ([3]; Carmustine 100 μM + BTB09463 5 μM or Retinoic acid 5 μM, 24 hours): completely suppress
- carmustine induction of AKR1C protein [4, 14]: attenuated
- sulforaphane induction of AKR1C protein ([4]; sulforaphane 5 μM, BTB09463 5 μM or Retinoic acid 1 μM): dramatically reduced
- constitutive expression of AKR1C1 mRNA ([5]; BTB09463 1, 5, 20, 40 μmol/l or retinoids 0.050, 0.20, 0.50, 2.0 μmol/l): inhibited the constitutive expression of AKR1C1 in a concentration-dependent manner
- constitutive mRNA levels of NQO1, GCLC and GCLM ([5]; BTB09463 1-40 μmol/l or retinoic acid 0.050-2.0 μmol/l): repressed the constitutive mRNA levels of NQO1, GCLC and GCLM in a concentration-dependent manner
- IC50 (MCF7 cells): 28 µM
- IC50 (A549 cells): 52 µM
- reduction of sulforaphane-induced AKR1C1 mRNA [6]: 50%
- sulforaphane-induced NQO1 mRNA expression [6]: reduced to basal levels

Compound: CC(C)(C)c1cc(O)ccc1O [tBHQ, tert-butylhydroquinone]
- Ratio (tBHQ/DMSO) [7]: 2.8 ± 0.9
- Relative luciferase activity (tBHQ treated) [7, 15]: 2.8 ± 0.9
- Ratio (tBHQ/DMSO) [8]: 2.7 ± 0.1
- Relative luciferase activity (tBHQ treated) [8, 15]: 1171.6 ± 8.8
- Ratio (tBHQ/DMSO) ([9]; 50 μM tBHQ): 52.0 ± 11.9
- Relative luciferase activity (tBHQ treated) ([9]; 50 μM tBHQ, HepG2 cells treated with DMSO set at 1): 2276.1 ± 521.1
- induction of luciferase activity ([9]; overnight treatment with 50 μM tBHQ): up to 50 fold
- induction of AKR1C1 mRNA [10]: approximately 15 fold
- increase of luciferase activity ([11]; 1 μM tBHQ, 24 h): 2 fold
- increase of luciferase activity ([11]; 5 μM tBHQ, 24 h): 5 fold
- lag phase before increase of luciferase activity ([11]; 10 μM tBHQ alone): approximately 3 hour
- increase of luciferase activity ([11]; 10 μM tBHQ, 8 h): 4 fold
- increase of luciferase activity ([11]; 10 μM tBHQ, 18 h): 10 fold
- induction of luciferase activity ([11]; 10 μM tBHQ, 50 ng pRS-hNrf2 DNA per well (Nrf2 RNAi)): 8 fold
- induction of luciferase activity ([11]; 10 μM tBHQ, 100 ng pRS-hNrf2 DNA per well (Nrf2 RNAi)): 6 fold
- induction of luciferase activity ([11]; 10 μM tBHQ, control cells, no DNA in the transfection mix): 13 fold and 10 fold
- inducible level of luciferase activity ([11]; 10 μM tBHQ, transfection with 50 ng pHyg-EF-hNrf2 per well): 19 fold
- inducible level of luciferase activity ([11]; 10 μM tBHQ, transfection with 100 ng pHyg-EF-hNrf2): 25 fold
- induction of luciferase expression compared to DMSO control ([11]; 50 μM tBHQ, 24 h): 14 fold
- CD, concentration of inducting agent that doubled luciferase reporter activity ([11]; AREc32, 24 h, DMSO set at 1): 1 µM
- Ratio (tBHQ/DMSO) [12]: 3.6 ± 0.5
- Relative luciferase activity (tBHQ treated) [12, 15]: 140.7 ± 19.6
- maximal increase of GFP reporter [13]: 3 fold
